Source: patent US20260347348A1, “JAK1/JAK2/TYK2 Inhibitors For Topical Treatment of Dermatological Diseases” (Hangzhou Highlightll Pharmaceutical Co., Ltd, priority 2022, published 2026)

Tests used:
TYK2/JAK1/JAK2 = TYK2/JAK1/JAK2 biochemical tests, comparative summary; details: for fold less potent than its 2-((pyrazol-4-yl)amino) analog (example 18): compared with example 18; for fold less potent TYK2/JAK1/JAK2 inhibitor compared to analogs of Formula II (example 4) and Formula III (example 18): compared with examples 4 and 18
Method: (§1) The tests were conducted by Reaction Biology Corp, Malvern, PA (Anastassiadis et al. Nat Biotechnol. 2011; 29(11):1039-45). The step is briefly described as follows.
(§2) Basic reaction buffer: 20 mM Hepes (pH 7.5), 10 mM MgCl2, 1 mM EGTA, 0.02% Brij35, 0.02 mg/ml BSA, 0.1 mM Na3VO4, 2 mM DTT and 1% DMSO. The required cofactor was added to each kinase reaction respectively.
(§3) • 1. Preparing the designated substrate in the newly prepared basic reaction buffer; • 2. Transferring the required cofactor to the above matrix solution; • 3. Transferring the designated kinase to the substrate solution and mixing well slightly; • 4. Transferring a compound of formulae I-III in DMSO to the kinase reaction mixture with Acoustic technique (Echo550; nanoliter range), culturing for 20 minutes at room temperature; • 5. Introducing ^33P-ATP (specific activity: 10 μCi/μl) to the reaction mixture to trigger a reaction; • 6. Culturing at room temperature and conducting a kinase reaction for 2 hours; • 7. Plotting the reaction on P81 ion exchange paper; • 8. Testing the kinase activity with a filter binding assay.

TYK2 = TYK2 (Homo sapiens, UniProt P29597); assay: TYK2 biochemical test (33P-ATP filter binding kinase assay); details: room temperature, 2 hours
Chain of TYK2 (P29597 whole entry): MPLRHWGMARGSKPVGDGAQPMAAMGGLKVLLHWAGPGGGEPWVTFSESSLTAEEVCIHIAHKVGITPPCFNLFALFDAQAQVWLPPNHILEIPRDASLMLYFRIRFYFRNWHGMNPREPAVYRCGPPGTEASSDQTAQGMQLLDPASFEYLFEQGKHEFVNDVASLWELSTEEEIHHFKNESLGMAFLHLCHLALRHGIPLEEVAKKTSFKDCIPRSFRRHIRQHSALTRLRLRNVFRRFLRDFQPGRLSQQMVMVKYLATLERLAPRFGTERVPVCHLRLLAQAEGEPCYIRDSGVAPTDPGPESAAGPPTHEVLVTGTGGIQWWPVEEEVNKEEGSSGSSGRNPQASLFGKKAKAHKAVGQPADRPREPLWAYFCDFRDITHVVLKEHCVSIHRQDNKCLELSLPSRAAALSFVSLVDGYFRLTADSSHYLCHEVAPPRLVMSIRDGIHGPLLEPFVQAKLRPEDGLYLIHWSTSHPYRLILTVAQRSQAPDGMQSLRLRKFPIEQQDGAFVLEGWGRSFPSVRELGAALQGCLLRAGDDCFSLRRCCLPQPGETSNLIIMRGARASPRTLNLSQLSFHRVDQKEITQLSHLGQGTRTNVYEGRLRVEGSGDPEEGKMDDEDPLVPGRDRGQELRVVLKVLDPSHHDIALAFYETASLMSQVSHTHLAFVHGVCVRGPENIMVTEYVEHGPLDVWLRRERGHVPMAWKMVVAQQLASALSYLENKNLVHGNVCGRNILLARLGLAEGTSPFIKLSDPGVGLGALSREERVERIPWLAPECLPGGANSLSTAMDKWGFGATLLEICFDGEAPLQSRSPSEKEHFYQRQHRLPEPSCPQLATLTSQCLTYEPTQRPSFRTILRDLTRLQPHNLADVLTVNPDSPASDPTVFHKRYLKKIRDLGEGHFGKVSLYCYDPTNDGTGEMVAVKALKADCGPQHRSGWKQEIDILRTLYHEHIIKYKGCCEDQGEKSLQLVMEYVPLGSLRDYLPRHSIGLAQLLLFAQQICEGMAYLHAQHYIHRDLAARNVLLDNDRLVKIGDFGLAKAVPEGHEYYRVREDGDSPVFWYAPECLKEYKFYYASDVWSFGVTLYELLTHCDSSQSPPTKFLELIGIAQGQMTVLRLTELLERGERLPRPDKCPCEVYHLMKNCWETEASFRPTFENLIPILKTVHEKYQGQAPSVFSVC
Method: as §1, §2, §3

JAK1 [1] = target: T1, JAK1 (Homo sapiens, UniProt P23458); assay: JAK1 biochemical test (33P-ATP filter binding kinase assay); details: room temperature, 2 hours
T1 sequence (P23458 whole entry): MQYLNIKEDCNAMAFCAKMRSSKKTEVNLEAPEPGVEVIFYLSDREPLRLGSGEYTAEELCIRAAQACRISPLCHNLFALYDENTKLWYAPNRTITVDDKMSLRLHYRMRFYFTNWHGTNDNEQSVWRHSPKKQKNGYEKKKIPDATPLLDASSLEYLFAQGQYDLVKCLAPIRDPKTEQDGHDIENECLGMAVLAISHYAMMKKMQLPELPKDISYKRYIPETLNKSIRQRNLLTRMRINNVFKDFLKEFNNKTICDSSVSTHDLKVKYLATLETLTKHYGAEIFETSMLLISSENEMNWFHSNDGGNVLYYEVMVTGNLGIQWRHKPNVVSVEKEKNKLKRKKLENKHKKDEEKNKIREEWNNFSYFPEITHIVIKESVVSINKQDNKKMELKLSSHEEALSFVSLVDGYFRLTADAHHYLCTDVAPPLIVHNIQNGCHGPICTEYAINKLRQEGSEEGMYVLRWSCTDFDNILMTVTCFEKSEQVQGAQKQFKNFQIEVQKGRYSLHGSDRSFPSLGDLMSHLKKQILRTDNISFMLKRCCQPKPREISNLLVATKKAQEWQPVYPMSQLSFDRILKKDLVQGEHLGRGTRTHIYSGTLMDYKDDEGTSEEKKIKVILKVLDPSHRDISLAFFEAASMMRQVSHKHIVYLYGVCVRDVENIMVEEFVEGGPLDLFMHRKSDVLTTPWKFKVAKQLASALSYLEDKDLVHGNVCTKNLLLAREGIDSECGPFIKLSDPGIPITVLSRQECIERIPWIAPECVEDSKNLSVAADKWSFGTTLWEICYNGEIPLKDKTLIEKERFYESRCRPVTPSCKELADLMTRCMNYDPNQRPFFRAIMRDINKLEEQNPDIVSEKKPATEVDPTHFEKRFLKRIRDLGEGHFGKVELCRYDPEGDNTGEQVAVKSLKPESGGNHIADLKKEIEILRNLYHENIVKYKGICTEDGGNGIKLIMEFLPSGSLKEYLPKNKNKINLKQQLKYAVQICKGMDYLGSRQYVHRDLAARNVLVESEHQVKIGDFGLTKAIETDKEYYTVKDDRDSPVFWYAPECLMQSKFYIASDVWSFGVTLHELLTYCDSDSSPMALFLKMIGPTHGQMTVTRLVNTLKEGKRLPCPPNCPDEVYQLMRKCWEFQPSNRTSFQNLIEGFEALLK
Method: as §1, §2, §3

JAK2 = JAK2 (Homo sapiens, UniProt O60674); assay: JAK2 biochemical test (33P-ATP filter binding kinase assay); details: room temperature, 2 hours
Chain of JAK2 (O60674 whole entry): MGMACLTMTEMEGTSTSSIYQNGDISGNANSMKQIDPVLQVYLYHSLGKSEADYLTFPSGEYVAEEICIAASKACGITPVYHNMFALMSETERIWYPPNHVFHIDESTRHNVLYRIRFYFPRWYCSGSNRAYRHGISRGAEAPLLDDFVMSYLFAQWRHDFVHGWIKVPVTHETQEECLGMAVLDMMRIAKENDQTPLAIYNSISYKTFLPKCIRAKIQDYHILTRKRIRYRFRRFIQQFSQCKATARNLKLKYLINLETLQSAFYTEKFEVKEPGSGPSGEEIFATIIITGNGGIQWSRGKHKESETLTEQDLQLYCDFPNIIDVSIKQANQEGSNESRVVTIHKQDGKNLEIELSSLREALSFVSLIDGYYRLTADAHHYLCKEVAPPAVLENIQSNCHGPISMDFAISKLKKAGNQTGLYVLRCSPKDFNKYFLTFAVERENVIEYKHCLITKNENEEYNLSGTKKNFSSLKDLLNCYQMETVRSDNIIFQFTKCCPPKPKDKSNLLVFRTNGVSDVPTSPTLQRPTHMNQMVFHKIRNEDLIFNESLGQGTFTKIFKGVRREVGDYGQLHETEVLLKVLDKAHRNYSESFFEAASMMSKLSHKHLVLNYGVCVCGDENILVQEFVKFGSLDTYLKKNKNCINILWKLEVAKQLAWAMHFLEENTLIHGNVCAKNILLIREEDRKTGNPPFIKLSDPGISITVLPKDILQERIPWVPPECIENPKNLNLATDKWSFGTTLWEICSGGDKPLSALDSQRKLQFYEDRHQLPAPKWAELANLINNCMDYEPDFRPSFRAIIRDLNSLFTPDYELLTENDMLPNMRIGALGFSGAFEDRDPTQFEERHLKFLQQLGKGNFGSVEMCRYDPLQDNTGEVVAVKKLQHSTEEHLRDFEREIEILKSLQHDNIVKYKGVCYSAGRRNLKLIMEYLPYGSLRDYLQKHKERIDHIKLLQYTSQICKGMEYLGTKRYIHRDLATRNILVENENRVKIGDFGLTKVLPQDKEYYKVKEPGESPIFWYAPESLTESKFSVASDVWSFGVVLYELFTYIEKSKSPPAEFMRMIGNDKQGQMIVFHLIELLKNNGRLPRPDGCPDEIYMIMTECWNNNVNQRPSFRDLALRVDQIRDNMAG
Method: as §1, §2, §3

[2] = approved oral agents; topical formulation of ruxolitinib; cited from earlier work
JAK1 [3] = target: T1, JAK1; assay: JAK1 cellular ELISA assay using PBMC cells (IL-6 stimulated STAT3 phosphorylation); assay type: cell-based; details: IL-6 100 ng/ml, 25 min
Method: Purpose: test cellular JAK1 activity using the IL-6 stimulated STAT3 phosphorylation assay in PBMC cells.
• 1. Plate PBMC cells to 96-well plate at density of ~300,000 cell/well; • 2. Add different concentrations of test article to wells, maintain in incubator at 37° C. and 5% CO2 for 1 hour; • 3. Add IL-6 (final concentration: 100 ng/ml) to stimulate for 25 min in the above incubator; • 4. After stimulation, transfer the suspension to 1.5 mL tube, centrifuge at 200 g for 5 min, collect cells, add 100 μL 1× lysate, lyse on ice for 1 hour; • 5. Centrifuge at 4° C. and 12000 rpm for 10 min, take the supernatant and analyze according to instructions of the ELISA kit.

In the case of CCS(=O)(=O)N1CC(CC#N)(n2cc(-c3nc(Nc4ccn(C)n4)ncc3C)cn2)C1.Cl [Compound 14, 2-(1-(ethylsulfonyl)-3-(4-(5-methyl-2-((1-methyl-1H-pyrazol-3-yl)amino)pyrimidin-4-yl)-1H-pyrazol-1-yl)azetidin-3-yl)acetonitrile hydrochloride, reference compound], the “fold less potent than its 2-((pyrazol-4-yl)amino) analog (example 18)” value (TYK2/JAK1/JAK2) is reported as greater than 10 ×, the IC50 (TYK2) is reported as greater than 10 nM and the IC50 (JAK1 [1]) is reported as greater than 10 nM.

In the case of CCCS(=O)(=O)N[C@H]1C[C@@H](N(C)c2nc(Nc3cnn(C)c3)ncc2C)C1 [Compound 20, N-((1s,3s)-3-(methyl(5-methyl-2-((1-methyl-1H-pyrazol-4-yl)amino)pyrimidin-4-yl)amino)cyclobutyl)propane-1-sulfonamide, reference compound], the IC50 (JAK2) is reported as greater than 10 nM, the “fold less potent TYK2/JAK1/JAK2 inhibitor compared to analogs of Formula II (example 4) and Formula III (example 18)” value (TYK2/JAK1/JAK2) is reported as greater than 10 × and the IC50 (TYK2) is reported as greater than 10 nM. It also gave an IC50 (JAK1 [1]) greater than 10 nM.

With Cc1cnc(Nc2cnn(C3CCOCC3)c2)nc1-c1cnn([C@H](CC#N)C2CCCC2)c1 [Compound 7, (R)-3-cyclopentyl-3-(4-(5-methyl-2-((1-(tetrahydro-2H-pyran-4-yl)-1H-pyrazol-4-yl)amino)pyrimidin-4-yl)-1H-pyrazol-1-yl)propanenitrile] the IC50 (JAK2) was less than 1 nM, the “TYK2/JAK1/JAK2 inhibition (in words)” value (TYK2/JAK1/JAK2) was “potent TYK2/JAK1/JAK2 inhibitors” and the IC50 (TYK2) was less than 1 nM. The IC50 (JAK1 [1]) was less than 1 nM.

For CCCS(=O)(=O)N[C@H]1C[C@@H](N(C)c2ncnc3[nH]ccc23)C1 [abrocitinib], the “black box warnings / risks” value [2] is given as “black box warnings of risks such as serious infections, non-melanoma skin cancers, thrombosis, and thrombocytopenia”.

In the case of Cc1cnc(Nc2ccc3ncn(C)c3c2)nc1-c1cnn([C@H](CC#N)C2CCCC2)c1 [Compound 23, (R)-3-cyclopentyl-3-(4-(5-methyl-2-((1-methyl-1H-benzo[d]imidazol-6-yl)amino)pyrimidin-4-yl)-1H-pyrazol-1-yl)propanenitrile], the IC50 (JAK1 [3]) is reported as less than 500 nM, the IC50 (JAK2) is reported as less than 1 nM and the “TYK2/JAK1/JAK2 inhibition (in words)” value (TYK2/JAK1/JAK2) is reported as “potent TYK2/JAK1/JAK2 inhibitors”. For the same compound, the IC50 (TYK2) was less than 1 nM and the IC50 (JAK1 [1]) was less than 1 nM.

With N#CC[C@H](C1CCCC1)n1cc(-c2nc(Nc3cnn(C4CCOCC4)c3)ncc2Cl)cn1 [Compound 11] the “TYK2/JAK1/JAK2 inhibition (in words)” value (TYK2/JAK1/JAK2) was “potent TYK2/JAK1/JAK2 inhibitors” and the IC50 (TYK2) was less than 1 nM.

With CCS(=O)(=O)N1CC(CC#N)(n2cc(-c3nc(Nc4cn(C)nn4)ncc3C)cn2)C1 [Compound 19, 2-(1-(ethylsulfonyl)-3-(4-(5-methyl-2-((1-methyl-1H-1,2,3-triazol-4-yl)amino)pyrimidin-4-yl)-1H-pyrazol-1-yl)azetidin-3-yl)acetonitrile, reference compound] the IC50 (JAK2) was greater than 10 nM, the “fold less potent than its 2-((pyrazol-4-yl)amino) analog (example 18)” value (TYK2/JAK1/JAK2) was greater than 10 × and the IC50 (TYK2) was greater than 10 nM. The IC50 (JAK1 [1]) was greater than 10 nM.

For Cc1cnc(Nc2cnn(C)c2)nc1N(C)[C@H]1CN(C(=O)CC#N)CC[C@H]1C [Compound 22, 3-((3R,4R)-4-methyl-3-(methyl(5-methyl-2-((1-methyl-1H-pyrazol-4-yl)amino)pyrimidin-4-yl)amino)piperidin-1-yl)-3-oxopropanenitrile, reference compound], the “fold less potent TYK2/JAK1/JAK2 inhibitor compared to analogs of Formula II (example 4) and Formula III (example 18)” value (TYK2/JAK1/JAK2) was greater than 100 ×, the IC50 (TYK2) was greater than 100 nM and the IC50 (JAK1 [1]) was greater than 100 nM.

In the case of Cc1cnc(Nc2cnn(C3COC3)c2)nc1-c1cnn([C@H](CC#N)C2CCCC2)c1 [Compound 8, (R)-3-cyclopentyl-3-(4-(5-methyl-2-((1-(oxetan-3-yl)-1H-pyrazol-4-yl)amino)pyrimidin-4-yl)-1H-pyrazol-1-yl) propanenitrile], the IC50 (JAK2) is reported as less than 1 nM, the “TYK2/JAK1/JAK2 inhibition (in words)” value (TYK2/JAK1/JAK2) is reported as “potent TYK2/JAK1/JAK2 inhibitors” and the IC50 (TYK2) is reported as less than 1 nM. It also gave an IC50 (JAK1 [1]) of less than 1 nM.

In the case of CC[C@@H]1CN(C(=O)NCC(F)(F)F)C[C@@H]1c1cnc2cnc3[nH]ccc3n12 [upadacitinib], the “black box warnings / risks” value [2] is listed as “black box warnings of risks such as serious infections, non-melanoma skin cancers, thrombosis, and thrombocytopenia”.

In the case of Cc1cnc(Nc2cnn(CC3CCOCC3)c2)nc1-c1cnn([C@H](CC#N)C2CCCC2)c1 [Compound 6, (R)-3-cyclopentyl-3-(4-(5-methyl-2-((1-((tetrahydro-2H-pyran-4-yl)methyl)-1H-pyrazol-4-yl)amino)pyrimidin-4-yl)-1H-pyrazol-1-yl)propanenitrile], the IC50 (JAK2) is reported as less than 1 nM, the “TYK2/JAK1/JAK2 inhibition (in words)” value (TYK2/JAK1/JAK2) is reported as “potent TYK2/JAK1/JAK2 inhibitors” and the IC50 (TYK2) is reported as less than 1 nM. It also gave an IC50 (JAK1 [1]) of less than 1 nM.

For CCS(=O)(=O)N1CC(CC#N)(n2cc(-c3nc(Nc4cnn(C)c4)ncc3C3CC3)cn2)C1 [Compound 2, 2-(3-(4-(5-cyclopropyl-2-((1-methyl-1H-pyrazol-4-yl)amino)pyrimidin-4-yl)-1H-pyrazol-1-yl)-1-(ethylsulfonyl)azetidin-3-yl) acetonitrile], the IC50 (JAK2) was less than 1 nM, the “TYK2/JAK1/JAK2 inhibition (in words)” value (TYK2/JAK1/JAK2) was “potent TYK2/JAK1/JAK2 inhibitors” and the IC50 (TYK2) was less than 1 nM. It also gave an IC50 (JAK1 [1]) of less than 10 nM.

With Cc1cnc(Nc2cnoc2)nc1-c1cnn([C@H](CC#N)C2CCCC2)c1 [Compound 5, (R)-3-cyclopentyl-3-(4-(2-(isoxazol-4-ylamino)-5-methylpyrimidin-4-yl)-1H-pyrazol-1-yl) propanenitrile] the IC50 (JAK2) was less than 1 nM, the “TYK2/JAK1/JAK2 inhibition (in words)” value (TYK2/JAK1/JAK2) was “potent TYK2/JAK1/JAK2 inhibitors” and the IC50 (TYK2) was less than 1 nM. The IC50 (JAK1 [1]) was less than 1 nM.

In the case of CCS(=O)(=O)N1CC(CC#N)(n2cc(-c3nc(Nc4ccc5ncn(C)c5c4)ncc3C)cn2)C1 [Compound 26, 2-(1-(ethylsulfonyl)-3-(4-(5-methyl-2-((1-methyl-1H-benzo[d]imidazol-6-yl)amino)pyrimidin-4-yl)-1H-pyrazol-1-yl)azetidin-3-yl)acetonitrile], the “TYK2/JAK1/JAK2 inhibition (in words)” value (TYK2/JAK1/JAK2) is reported as “potent TYK2/JAK1/JAK2 inhibitors” and the IC50 (JAK1 [1]) is reported as less than 1 nM.

With Cc1cnc(Nc2cnn(CCO)c2)nc1-c1cnn([C@H](CC#N)C2CCCC2)c1 [Compound 24, (R)-3-cyclopentyl-3-(4-(2-((1-(2-hydroxyethyl)-1H-pyrazol-4-yl)amino)-5-methylpyrimidin-4-yl)-1H-pyrazol-1-yl)propanenitrile] the IC50 (JAK1 [3]) was less than 500 nM, the IC50 (JAK2) was less than 1 nM and the “TYK2/JAK1/JAK2 inhibition (in words)” value (TYK2/JAK1/JAK2) was “potent TYK2/JAK1/JAK2 inhibitors”. For the same compound, the IC50 (TYK2) was less than 1 nM and the IC50 (JAK1 [1]) was less than 1 nM.

In the case of Cc1cnc(Nc2cnn(CC3COC3)c2)nc1-c1cnn([C@H](CC#N)C2CCCC2)c1 [Compound 9, (R)-3-cyclopentyl-3-(4-(5-methyl-2-((1-(oxetan-3-ylmethyl)-1H-pyrazol-4-yl)amino)pyrimidin-4-yl)-1H-pyrazol-1-yl) propanenitrile], the IC50 (JAK2) is reported as less than 1 nM, the “TYK2/JAK1/JAK2 inhibition (in words)” value (TYK2/JAK1/JAK2) is reported as “potent TYK2/JAK1/JAK2 inhibitors” and the IC50 (TYK2) is reported as less than 1 nM. The IC50 (JAK1 [1]) was less than 1 nM.

For CNS(=O)(=O)C[C@H]1CC[C@H](N(C)c2nc(Nc3cnn(C)c3)ncc2C)CC1 [Compound 21, N-methyl-1-((1r,4r)-4-(methyl(5-methyl-2-((1-methyl-1H-pyrazol-4-yl)amino)pyrimidin-4-yl)amino)cyclohexyl)methanesulfonamide, reference compound], the IC50 (JAK2) was greater than 100 nM, the “fold less potent TYK2/JAK1/JAK2 inhibitor compared to analogs of Formula II (example 4) and Formula III (example 18)” value (TYK2/JAK1/JAK2) was greater than 100 × and the IC50 (TYK2) was greater than 100 nM. The IC50 (JAK1 [1]) was greater than 100 nM.
